The target of series [1] is Hepatocyte growth factor receptor (Homo sapiens, UniProt P08581). In words: Inhibition of recombinant c-MET by HTRF assay.
A further series addresses hERG (KCNH2) (Homo sapiens, UniProt Q12809). In words: Displacement of [3H]astemizole from human ERG expressed in HEK293 cells at 10 uM. To be noted: HEK293 cells expressing human ERG, probe [3H]astemizole.
Series [2] in a line: Cmax in rat at 10 mg/kg, po. Format: ADME, organism-based. Further details: dose 10 mg/kg, route oral. The settings on record: in vivo.
Series [3] in a line: AUC in rat at 10 mg/kg, iv. Also on record: dose 10 mg/kg, route intravenous. To be noted: plasma. Format: ADME, organism-based.
Series [4] is described as follows: AUC in rat at 10 mg/kg, po. The settings on record: plasma. Format: ADME, organism-based. Also on record: dose 10 mg/kg, route oral.
The nature of series [5]: Clearance in rat at 10 mg/kg, iv. Format: ADME, organism-based. Also on record: dose 10 mg/kg, route intravenous. The settings on record: in vivo.
The nature of series [6]: Volume of distribution at steady state in rat at 10 mg/kg, iv. In kind it is ADME, organism-based. Also on record: dose 10 mg/kg, route intravenous. The settings on record: in vivo, read-out: Vdss.
Series [7] is described as follows: Oral bioavailability in rat at 10 mg/kg. Format: ADME, organism-based. To be noted: in vivo.

Chain of Hepatocyte growth factor receptor (P08581 whole entry): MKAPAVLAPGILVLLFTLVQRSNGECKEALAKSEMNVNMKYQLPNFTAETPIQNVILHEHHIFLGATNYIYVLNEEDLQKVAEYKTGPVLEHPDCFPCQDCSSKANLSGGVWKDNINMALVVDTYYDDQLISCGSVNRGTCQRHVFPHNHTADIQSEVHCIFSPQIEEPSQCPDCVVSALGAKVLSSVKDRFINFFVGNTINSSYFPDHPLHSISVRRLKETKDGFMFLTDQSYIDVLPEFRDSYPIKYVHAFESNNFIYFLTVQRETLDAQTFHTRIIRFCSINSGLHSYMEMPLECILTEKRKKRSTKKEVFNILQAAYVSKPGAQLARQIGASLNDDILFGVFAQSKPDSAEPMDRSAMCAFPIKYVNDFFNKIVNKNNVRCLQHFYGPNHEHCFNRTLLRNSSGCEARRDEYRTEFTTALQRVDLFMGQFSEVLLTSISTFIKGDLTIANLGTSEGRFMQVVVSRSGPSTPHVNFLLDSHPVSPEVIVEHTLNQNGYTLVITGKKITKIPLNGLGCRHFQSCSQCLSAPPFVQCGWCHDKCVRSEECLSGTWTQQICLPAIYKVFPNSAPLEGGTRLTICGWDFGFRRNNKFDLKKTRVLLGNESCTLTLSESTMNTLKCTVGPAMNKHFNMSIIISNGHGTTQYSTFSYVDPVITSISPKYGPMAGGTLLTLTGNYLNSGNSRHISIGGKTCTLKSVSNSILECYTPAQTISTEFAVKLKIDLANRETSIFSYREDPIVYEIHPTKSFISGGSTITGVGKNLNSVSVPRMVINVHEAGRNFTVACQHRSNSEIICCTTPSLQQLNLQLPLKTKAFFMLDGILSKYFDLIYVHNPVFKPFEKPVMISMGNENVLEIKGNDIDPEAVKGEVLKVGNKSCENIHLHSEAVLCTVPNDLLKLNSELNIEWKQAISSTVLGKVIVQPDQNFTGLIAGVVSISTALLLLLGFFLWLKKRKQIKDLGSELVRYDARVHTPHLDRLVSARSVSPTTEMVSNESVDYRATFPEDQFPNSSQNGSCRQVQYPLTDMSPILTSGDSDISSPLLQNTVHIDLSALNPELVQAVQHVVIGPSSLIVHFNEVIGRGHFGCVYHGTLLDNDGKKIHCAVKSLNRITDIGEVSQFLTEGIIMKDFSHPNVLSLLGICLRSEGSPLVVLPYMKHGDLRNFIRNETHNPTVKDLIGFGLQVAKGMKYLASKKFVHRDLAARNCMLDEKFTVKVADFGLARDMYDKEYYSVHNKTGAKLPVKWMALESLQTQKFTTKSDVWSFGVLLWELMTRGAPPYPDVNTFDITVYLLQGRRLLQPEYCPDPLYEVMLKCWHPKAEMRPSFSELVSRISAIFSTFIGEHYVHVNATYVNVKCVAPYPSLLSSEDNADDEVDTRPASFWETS
Chain of hERG (KCNH2) (Q12809 whole entry): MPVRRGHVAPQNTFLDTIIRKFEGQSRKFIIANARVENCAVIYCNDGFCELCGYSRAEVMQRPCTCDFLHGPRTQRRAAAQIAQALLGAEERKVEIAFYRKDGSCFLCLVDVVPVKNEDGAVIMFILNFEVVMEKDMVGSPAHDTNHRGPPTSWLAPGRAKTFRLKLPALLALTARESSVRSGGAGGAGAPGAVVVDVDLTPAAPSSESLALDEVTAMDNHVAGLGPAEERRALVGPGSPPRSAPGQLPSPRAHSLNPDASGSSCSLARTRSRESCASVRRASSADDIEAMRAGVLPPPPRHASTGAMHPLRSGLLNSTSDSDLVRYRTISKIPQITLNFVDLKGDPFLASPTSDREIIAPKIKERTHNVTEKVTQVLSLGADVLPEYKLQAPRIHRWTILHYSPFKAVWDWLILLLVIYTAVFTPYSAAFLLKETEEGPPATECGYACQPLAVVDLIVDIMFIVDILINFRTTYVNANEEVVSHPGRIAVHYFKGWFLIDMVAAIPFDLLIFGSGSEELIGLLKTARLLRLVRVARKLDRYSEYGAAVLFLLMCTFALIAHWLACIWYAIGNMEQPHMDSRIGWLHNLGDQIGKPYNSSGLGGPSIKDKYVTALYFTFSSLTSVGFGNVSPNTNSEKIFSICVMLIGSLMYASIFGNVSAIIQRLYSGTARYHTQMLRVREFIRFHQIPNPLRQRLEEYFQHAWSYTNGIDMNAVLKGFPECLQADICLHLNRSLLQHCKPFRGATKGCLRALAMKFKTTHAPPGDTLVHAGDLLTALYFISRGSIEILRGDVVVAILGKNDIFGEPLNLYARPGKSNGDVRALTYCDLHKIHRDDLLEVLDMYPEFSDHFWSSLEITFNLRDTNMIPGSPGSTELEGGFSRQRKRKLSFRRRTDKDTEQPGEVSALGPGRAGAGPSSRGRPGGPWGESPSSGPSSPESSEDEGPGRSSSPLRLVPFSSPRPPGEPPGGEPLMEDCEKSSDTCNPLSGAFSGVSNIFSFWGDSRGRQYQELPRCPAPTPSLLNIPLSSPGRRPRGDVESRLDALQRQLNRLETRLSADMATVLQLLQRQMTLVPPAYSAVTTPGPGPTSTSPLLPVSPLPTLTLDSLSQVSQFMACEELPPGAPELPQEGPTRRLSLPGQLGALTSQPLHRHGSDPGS

As usually defined, the IC50 is the concentration that inhibits the measured activity by half. Take `CCN(CC)C(=O)N1CCC(n2cc(-c3cnc(N)c(-c4nc5ccccc5o4)c3)cn2)CC1`: the IC50 in series [1] was 357 nM. Regarding `COC(=O)N1CCC(n2cc(-c3cnc(N)c(-c4nc5ccccc5o4)c3)cn2)CC1`, the IC50 in series [1] is 58 nM. The same measure, in the same setting: with `CS(=O)(=O)N1CCC(n2cc(-c3cnc(N)c(-c4nc5ccccc5o4)c3)cn2)CC1` the figure was 371 nM; with `COCC(=O)N1CCC(n2cc(-c3cnc(N)c(-c4nc5ccccc5o4)c3)cn2)CC1`, 17 nM; with `CN(C)CC(=O)N1CCC(n2cc(-c3cnc(N)c(-c4nc5ccccc5o4)c3)cn2)CC1`, 60 nM. In the case of `Nc1ncc(-c2ccncc2)cc1-c1nc2ccccc2o1`, in series [1], the IC50 is 5200 nM. Same read-out and setting: with `Nc1ncc(-c2cccnc2)cc1-c1nc2ccccc2o1` the figure was greater than 10000 nM.

In the case of `Nc1ncc(-c2ccccc2)cc1-c1nc2ccccc2o1`, the IC50 in series [1] is greater than 10000 nM. Usually inhibition stands for the percentage by which the read-out fell short of the control. Higher therefore signals a response far below the control. Take `Cn1cc(-c2cnc(N)c(-c3nc4ccccc4o3)c2)cn1`: the IC50 in series [1] was 2100 nM. Besides, the inhibition at 10 µM at hERG (KCNH2) stood at 15%. Consider `Nc1ncc(-c2cnn(C3CCOCC3)c2)cc1-c1nc2ccccc2o1`, for which the half-inhibitory concentration (IC50) in series [1] is 430 nM. For `Nc1ncc(-c2cnn(C3CCNCC3)c2)cc1-c1nc2ccccc2o1`, the IC50 in series [1] came to 80 nM. The same measure, in the same setting: the value for `Cn1cc(-c2cncc(-c3nc4ccccc4o3)c2)cn1` was greater than 10000 nM. Regarding `CCC(=O)N1CCC(n2cc(-c3cnc(N)c(-c4nc5ccccc5o4)c3)cn2)CC1`, in series [1], the IC50 was determined as 7 nM. Take `Nc1ncc(-c2cnn(C3CCN(C(=O)c4ccccc4)CC3)c2)cc1-c1nc2ccccc2o1`: the IC50 in series [1] is 140 nM. Consider `Nc1ncc(-c2cnn(CCO)c2)cc1-c1nc2ccccc2o1`, for which the IC50 in series [1] worked out at 1300 nM. In general, Cmax refers to the highest concentration seen after dosing. One may read the AUC as concentration integrated over time. Read a high AUC as high exposure. In general, clearance refers to a measure of how efficiently the substance is removed, as volume per time. Higher therefore signals a high capacity for elimination. As a reminder, the bioavailability is the share of a dose that reaches the circulation, judged against a reference dose that is usually intravenous. Turning to `CC(=O)N1CCC(n2cc(-c3cnc(N)c(-c4nc5ccccc5o4)c3)cn2)CC1.Cl`, the IC50 in series [1] was 3 nM. Further, the Cmax in series [2] came out at 600 ng/mL. Further, the AUC in series [3] came out at 5600 ng·h/mL; in series [4], 2700 ng·h/mL. Besides, the clearance in series [5] is 30 mL/min/kg. Also, the Vd in series [6] was found to be 2.4 L/kg. Also, in series [7], the bioavailability is 47%. Consider `Nc1ncc(-c2cnn(C3CCN(C(=O)CO)CC3)c2)cc1-c1nc2ccccc2o1`, for which the IC50 in series [1] amounted to 26 nM. The same measure, in the same setting: with `c1ccc2oc(-c3cncc(-c4cnn(C5CCNCC5)c4)c3)nc2c1` the figure was greater than 10000 nM; with `CNc1ncc(-c2cnn(C)c2)cc1-c1nc2ccccc2o1`, greater than 10000 nM; with `Cn1cc(-c2cnc(NCc3ccccc3)c(-c3nc4ccccc4o3)c2)cn1`, greater than 10000 nM. The same measure, in the same setting: with `CNc1ncc(-c2cnn(C3CCNCC3)c2)cc1-c1nc2ccccc2o1` the figure was greater than 10000 nM.

(Values after ChEMBL document CHEMBL1177783, “Discovery of aminopyridines substituted with benzoxazole as orally active c-Met kinase inhibitors” (Bioorg Med Chem Lett, 2010).)
